This is an account of results in paper PMC8877448, “In Vitro and In Vivo Pharmacological Characterization of a Novel TRPM8 Inhibitor Chemotype Identified by Small-Scale Preclinical Screening” (International Journal of Molecular Sciences, 2022).

Where “and” joins values, the source holds several entries; their conditions need not be identical. Identical values can stand only once. Like-named read-outs stand apart in the source and are kept apart here.

One may read the IC50 as the concentration that gives 50% inhibition. The EC50 is the concentration at which the effect is half-maximal.

Test [1] addresses T1, rat isoform of TRPM8 channels (Rattus norvegicus, UniProt Q8R455).
T1 construct: expressed in transfected cells
Briefly: Ca2+ fluorometric assay, block of menthol-evoked responses in HEK293 cells stably expressing rTRPM8. In kind it is cell-based. To be noted: for Efficacy: percentage of inhibition of menthol evoked currents at the maximum concentration used (50 µM); for potency compared with AMTB: calcium fluorometric assay. As to the method: The inhibitory activity of the 21 selected compounds over TRPM8 was challenged by Ca^2+ fluorometric assays using HEK293 cells stably expressing the rat isoform of TRPM8 channels. Menthol and AMTB were used as reference agonist and antagonist, respectively. The compounds were initially tested at three different concentrations (50 μM, 5 μM, and 0.5 μM) to assess their ability in blocking 100 μM menthol evoked currents.
Cells, HEK-293 cells stably expressing rTRPM8 or hTRPV1, were cultured in a monolayer in Earle’s minimum essential medium with Earle’s salts supplemented with 10% fetal calf serum, 1% nonessential amino acids, 2 mM L-glutamine, 100 µg streptomycin/mL, 100 U penicillin/mL, and 0.4 µg/mL puromycin (referred to as Puro-EMEM) and kept at 37 °C in a humidified atmosphere of 5% CO2 in a suitable incubator (STERI-CyCLE CO2 Incubator Hepa Class 100, Thermo Electrón Corporation, Waltham, MA, USA). Cells were stored under liquid nitrogen and used for 15 generations from unfreezing.
For fluorometric experiments, HEK-293 cells stably expressing rTRPM8 or hTRPV1 were detached by means of Trypsin/EDTA solution, resuspended in DMEM-10%FCS and seeded at a concentration of 2 × 10^4 cells/mL.
(§1) Briefly human embryonic kidney cell line (HEK) stably transfected with rTRPM8 or hTRPV1 were seeded in 96-well plates at a cell density of 30,000 cells. After 2 days the medium was replaced with 100 μL of the dye loading solution Fluo-4 NW supplemented with probenecid 2.5 mM and incubated 1 h at 37 °C. The TRP ion channel activity was measured using POLASTAR plate reader (BMG Labtech, Ortenberg, Germany) setting the excitation wavelength at 485 nm and emission wavelength at 520 nm. The baseline fluorescence was recorded for 3 cycles before the addition of the vehicle, compound at different concentrations, and the antagonist, 10 μM AMTB for TRPM8 and Ruthenium red for TRPV1. Fluorescence intensity was recorded during 7 more cycles and agonist 100 μM menthol for TRPM8 or 10 μM capsaicin for TRPV1 was added. Fluorescence intensity was recorded during 10 more cycles.
Data analysis: The Z-factor was calculated in each assay using the following equation: […]. […] A decrease in menthol signal was expressed as a percentage of inhibition (%). All data are expressed as the mean ± standard deviation (SD). Data are expressed as the concentration exerting a half-maximal inhibition of agonist-induced (Ca^2+)^i elevation (IC50), which was calculated again using GraphPad Prism® software (GraphPad Prism 5, Graphpad Software, San Diego, CA, USA). The equation used was Y = Bottom + (Top − Bottom)/(1 + 10^((LogEC50-X) ^× HillSlope)), with the restriction of the minimum (Bottom = 0). All determinations were performed in triplicate (n = 3) in 3 independent experiments (n= 3).

Test [2] relates to oxaliplatin-induced cold allodynia. Briefly: Oxaliplatin-induced cold hypersensitivity, acetone drop test. The settings on record: for effect on oxaliplatin-induced cold hypersensitivity: acetone drop test. In kind it is in vivo, mice. From the text: TRPM8 antagonism is deeply related to analgesic in vivo effects and has been proposed as a suitable pharmacological strategy for the treatment of chronic pain, migraine, and painful syndromes. TRPM8 antagonists are particularly known to counteract the chemotherapy-induced neuropathic pain evoked by oxaliplatin [24, 27, 28, 29]. For these reasons we challenged compound 14 (BB 0322703) in vivo using the oxaliplatin-induced cold hypersensitivity assay. […]. […] In particular, a correspondence between the in vitro potency and the effective in vivo dose is typical for TRPM8 modulators in the oxaliplatin-induced neuropathic pain model. Extremely in-vitro potent compounds are effective also at lower doses […]. When in vitro potency is reduced, as also in the present case, in vivo efficacy decreases correspondingly. […] This is also the case of compound 14, which for these reasons could be considered a promising hit-compound for the development of new chemotypes as TRPM8 antagonists and a pharmacological tool for the treatment of neuropathic pain.
[…]. Care was taken to minimize the number of animals used and the pain and stress they experienced. All experimental procedures were approved by the Animal Care and Use Committees of Universidad Miguel Hernández and the regional government and were conducted according to the ethical principles of the International Association for the Study of Pain (IASP) for the evaluation of pain in conscious animals, the European Parliament and the Council Directive (2010/63/EU) and the Spanish law (RD 53/2013). Housing conditions were maintained at 21 ± 1 °C and 55 ± 15% relative humidity in a controlled light/dark cycle (light on between 8:00 a.m. and 8:00 p.m.). Animals had free access to food and water except during the habituation or the evaluation of nociceptive sensitivity. All parts of the study concerning animal care were performed under veterinary control.
Compound 14 (BB 0322703) was dissolved in 2.5% dimethyl sulfoxide (Merck, Darmstadt, Germany) and 2.5% cremophor EL (Merck) diluted in saline. […]
Oxaliplatin-induced neuropathic pain was induced by repeated oxaliplatin administration (Cat. No. 2623, Tocris, Bristol, UK). […] Nociceptive sensitivity was assessed before oxaliplatin treatment and 3 days after the last oxaliplatin administration.
Cold chemical thermal sensitivity was assessed using the acetone drop method as previously described. […] The responses were measured for 1 min with a digital stopwatch. For each measurement, the paw was sampled three times and the mean was calculated. […]
Behavioral data were analyzed with a repeated-measures ANOVA followed by a post-hoc Tukey test (GraphPad Prism 7.04, GraphPad Software Inc.). p-values lower than 0.05 were considered statistically significant.

Another test deals with T2, rTRPM8 (Rattus norvegicus, UniProt Q8R455).
T2 construct: expressed in transfected cells
T2 sequence (Q8R455 whole entry): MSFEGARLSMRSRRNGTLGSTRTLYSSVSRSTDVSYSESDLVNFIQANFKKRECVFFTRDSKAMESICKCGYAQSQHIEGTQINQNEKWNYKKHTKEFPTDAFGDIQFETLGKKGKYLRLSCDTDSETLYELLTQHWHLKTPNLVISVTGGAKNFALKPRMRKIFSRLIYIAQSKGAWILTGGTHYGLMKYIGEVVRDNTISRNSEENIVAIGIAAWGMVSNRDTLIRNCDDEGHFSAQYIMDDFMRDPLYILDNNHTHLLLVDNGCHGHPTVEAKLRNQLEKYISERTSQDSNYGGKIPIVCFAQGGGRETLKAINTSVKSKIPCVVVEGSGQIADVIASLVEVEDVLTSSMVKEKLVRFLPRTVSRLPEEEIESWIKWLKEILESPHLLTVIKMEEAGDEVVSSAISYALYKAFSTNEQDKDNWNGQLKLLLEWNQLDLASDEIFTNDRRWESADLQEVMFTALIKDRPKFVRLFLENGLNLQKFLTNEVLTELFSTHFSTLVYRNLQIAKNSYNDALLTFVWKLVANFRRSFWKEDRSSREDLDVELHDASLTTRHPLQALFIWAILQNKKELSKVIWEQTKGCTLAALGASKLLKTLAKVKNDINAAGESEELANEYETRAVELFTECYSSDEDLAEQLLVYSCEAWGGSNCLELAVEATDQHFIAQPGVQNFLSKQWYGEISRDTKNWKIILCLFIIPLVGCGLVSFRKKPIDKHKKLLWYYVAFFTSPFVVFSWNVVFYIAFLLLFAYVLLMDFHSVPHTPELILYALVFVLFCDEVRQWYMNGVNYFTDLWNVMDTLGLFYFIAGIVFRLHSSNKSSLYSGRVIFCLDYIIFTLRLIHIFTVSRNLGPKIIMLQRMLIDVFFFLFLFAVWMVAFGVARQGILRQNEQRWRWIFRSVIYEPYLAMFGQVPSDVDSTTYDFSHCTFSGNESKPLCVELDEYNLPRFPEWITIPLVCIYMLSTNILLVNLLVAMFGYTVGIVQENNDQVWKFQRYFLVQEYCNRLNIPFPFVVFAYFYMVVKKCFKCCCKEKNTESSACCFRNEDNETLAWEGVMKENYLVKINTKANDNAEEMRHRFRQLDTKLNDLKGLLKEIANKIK
The experiment in a line: Whole-cell patch-clamp on HEK-rTRPM8 cells, menthol-evoked currents. The format is cell-based. As to the method: Dose-response curves were then recorded to evaluate the compound relative potencies.
Whole-cell patch-clamp recordings from HEK-rTRPM8 cells were carried out 2 days after seeding on 12-mm Ø glass coverslips treated with poly-L-lysine solution (Sigma Aldrich, Madrid, Spain); the intracellular pipette solution contained (in mM) 150 NaCl, 5 EGTA, 3 MgCl2, and 10 HEPES, adjusted to pH 7.2 with NaOH, and the extracellular solution contained (in mM) 150 NaCl, 6 CsCl, 1.5 CaCl2, 1 MgCl2, 10 D-glucose and 10 HEPES, adjusted to pH 7.4 with NaOH. The TRPM8 activity was measured by the application of two pulses of 100 μM menthol in a time interval of 2 min and 30-s perfusion of the different compound concentrations before the second menthol pulse.
The series resistance was <10 MΩ and to minimize voltage errors was compensated to 60–80%. All measurements were performed at 24–25 °C. Cell capacitance was measured and used to estimate the current density (J, pA/pF).
For the whole-cell patch-clamp experiments, results are expressed as the percentage of the remaining activation of the TRPM8 channel. This is calculated by normalizing the ratio (p2/p1) of testing conditions to the ratio (p2/p1) of the control condition. The analysis of the data was performed by GraphPad 6.0, the ordinary one-way ANOVA analysis followed by the post hoc Bonferroni test established multiple comparisons, and the ROUT method (Q = 10%) identified data outliers. […] Paired or unpaired Student’s t-tests were also used for data comparison between two groups. All data are expressed as the mean ± standard error of the mean (SEM) (n = 12–15).
A general note: In patch-clamp work, channel activity is measured electrically.

For a further test, the target named is T3, hTRPV1 (Homo sapiens, UniProt Q8NER1).
T3 construct: expressed in transfected cells
T3 sequence (Q8NER1 whole entry): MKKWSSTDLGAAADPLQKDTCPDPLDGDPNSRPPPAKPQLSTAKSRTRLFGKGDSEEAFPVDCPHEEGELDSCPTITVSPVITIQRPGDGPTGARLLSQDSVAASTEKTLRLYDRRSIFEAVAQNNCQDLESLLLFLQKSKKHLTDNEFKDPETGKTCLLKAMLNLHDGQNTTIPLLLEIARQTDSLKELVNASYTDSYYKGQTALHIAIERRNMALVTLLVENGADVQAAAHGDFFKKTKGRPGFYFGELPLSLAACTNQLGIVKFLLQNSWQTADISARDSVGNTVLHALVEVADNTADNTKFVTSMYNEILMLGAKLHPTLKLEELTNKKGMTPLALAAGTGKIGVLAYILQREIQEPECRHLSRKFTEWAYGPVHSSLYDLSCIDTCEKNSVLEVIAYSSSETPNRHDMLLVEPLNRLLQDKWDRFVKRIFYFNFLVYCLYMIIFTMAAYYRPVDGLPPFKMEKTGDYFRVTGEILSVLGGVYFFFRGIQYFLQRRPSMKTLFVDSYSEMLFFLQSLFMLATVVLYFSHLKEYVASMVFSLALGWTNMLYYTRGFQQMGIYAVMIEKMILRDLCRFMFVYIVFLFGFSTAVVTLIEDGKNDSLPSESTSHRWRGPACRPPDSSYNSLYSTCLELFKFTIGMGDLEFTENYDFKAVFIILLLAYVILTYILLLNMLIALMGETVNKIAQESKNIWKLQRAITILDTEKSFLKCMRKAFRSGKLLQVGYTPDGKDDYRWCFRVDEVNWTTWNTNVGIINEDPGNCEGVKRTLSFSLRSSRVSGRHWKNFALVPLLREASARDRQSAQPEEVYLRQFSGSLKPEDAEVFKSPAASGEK
The experiment in a line: Ca2+ fluorometric assay on HEK-293 cells stably expressing hTRPV1 (selectivity). In kind it is cell-based. As to the method:
Cells, HEK-293 cells stably expressing rTRPM8 or hTRPV1, were cultured in a monolayer in Earle’s minimum essential medium with Earle’s salts supplemented with 10% fetal calf serum, 1% nonessential amino acids, 2 mM L-glutamine, 100 µg streptomycin/mL, 100 U penicillin/mL, and 0.4 µg/mL puromycin (referred to as Puro-EMEM) and kept at 37 °C in a humidified atmosphere of 5% CO2 in a suitable incubator (STERI-CyCLE CO2 Incubator Hepa Class 100, Thermo Electrón Corporation, Waltham, MA, USA). Cells were stored under liquid nitrogen and used for 15 generations from unfreezing. […]
as §1, with “After 2 days the medium was replaced with 100 μL of the dye loading solution Fluo-4 NW supplemented with probenecid 2.5 mM and incubated 1 h at 37 °C.” left out, “cycles. […]” for “cycles.”

T1 sequence (Q8R455 whole entry, canonical isoform): as the sequence (Q8R455 whole entry) above

In the case of `Cc1cccc(COc2ccccc2C(=O)N(CCCN)Cc2cccs2)c1` [AMTB, reference compound], the IC50 in test [1] (100 μM menthol, HEK293 rTRPM8, mean ± SD of at least three independent measurements, read-out: IC50) is 7.15 ± 1.24 µM. The compound further showed an Efficacy in test [1] of 100%.
For `NCC1CCCN(CCc2cccc(F)c2)C1` (centres unmarked) [Compound 1], in test [1], the 50% inhibitory concentration (IC50) amounted to 10.2 ± 1.31 µM, the “potency compared with AMTB” value was “comparable potencies to AMTB” and the Efficacy came to 85%.
Take `Cc1nn(C)c(Oc2ccc(Cl)cc2)c1-c1noc(C)c1C(=O)Nc1ccc(F)cc1` [Compound 5]: in test [1], the IC50 amounted to 11.1 ± 1.32 µM, the “potency compared with AMTB” value was “comparable potencies to AMTB” and the Efficacy is listed as 95%.
Turning to `CCOC(=O)C(C)Nc1ccccc1C(=O)NC(C)c1ccccc1` [Compound 14, Ethyl (R)-N-[2-{[(1-Phenylethyl)amino]carbonyl}phenyl]-2-aminopropionic acid], the IC50 came out at 0.25 ± 0.15 µM in test [1] and 1.25 ± 0.26 µM against rTRPM8. Moreover, in test [1] (calcium fluorometric IC50 compared with reference AMTB), the “IC50/potency fold difference versus AMTB” value is listed as “about 30 fold”. This compound also showed an Efficacy in test [1] of 100%. The “efficacy in cold allodinya model” value in test [2] (30 μM dose (abstract)) is “showing pharmacological efficacy”. The “effect on oxaliplatin-induced cold hypersensitivity” value in test [2] (mice, intraplantar 10 µg) is on record as “did not show significant modification of their nociceptive sensitivity”; in test [2] (mice, intraplantar dose of 30 µg, p < 0.05 vs. Oxaliplatin), “significant inhibition of this cold hypersensitivity”. Besides, in test [2] (mice, intraplantar dose of 30 µg), the “duration of inhibition of cold hypersensitivity” value is “at least 1 h”. The “effect on TRPM8 menthol-evoked currents” value on rTRPM8 (compound at 10 μM, 100 μM menthol) was “abolishing the TRPM8 menthol-evoked currents”. The “Hill slope, patch-clamp inhibition” value at rTRPM8 (fit of dose-response curve, Top = 100) is −1.23.
On to `COC(=O)C1=C(Nc2ccccc2F)SC(=Cc2ccccc2OCC#CC(C)(O)c2ccccn2)C1=O` (centres unmarked) [Compound 19], for which, in test [1], half-maximal inhibition (IC50) required 5.52 ± 1.45 µM, the “potency compared with AMTB” value is “comparable potencies to AMTB” and the Efficacy is recorded as 90%. For the same compound, the EC50 on hTRPV1 (agonist, normalized to capsaicine 10 μM = 100%, brackets 95% confidence interval, read-out: EC50 TRPV1 activation) was 1.34 to 1.68 µM and 1.34 µM. For the same compound, the “Hill Slope, TRPV1 activation” value on hTRPV1 (fit of dose-response curve, Bottom = 0) came to 0.67.
